Measured values reported in patent publication US6921775B2, “Methods for modulating brain damage” (Children's Medical Center Corporation, priority 2001, dated 2005).

Columns and labels:
OL precursor cells = test: Cell lineage progression (stage-specific markers A2B5, O4, O1, MBP) in OL precursor cultures; format: cell-based, rat; conditions: topiramate 30 μM, NBQX 100 μM; 0, 2, 6 and 10 days of maturation
Method: Primary oligodendrocyte precursor cells were isolated from mixed glial cultures of the forebrains of newborn Sprague-Dawley rats using a selective detachment procedure as described in detail elsewhere (McCarthy and de Vellis, 1980; Back et al., 1998), and further purified by differential adhesion (Back et al., 1998). Precursor cells were maintained in a chemically-defined medium (CDM) supplemented with recombinant human platelet derived growth factor-AA (PDGF, 10 ng/ml) and basic fibroblast growth factor (bFGF, 10 ng/ml). The CDM was Dulbecco Modified Eagle's Medium (DMEM) containing D-glucose (25 mM), L-glutamine (4 mM), sodium pyruvate (1 mM), human apo-transferrin (50 μg/ml), bovine pancreatic insulin (5 μg/ml), sodium selenium (30 nM), hydrocortisone (10 nM), D-biotin (10 nM), and bovine serum albumin (BSA, 1 mg/ml). All chemicals were from Sigma. […] Cell lineage progression was monitored by the sequential emergence of stage-specific immunochemical markers: A2B5, O4, O1, and MBP, as described previously (Back et al., 1998). […] The effect of these protocols on maturation was also assessed. Differentiation of the cultures in the absence or presence of topiramate (30 μM) or NBQX (100 μM) was monitored by cell morphology and the sequential emergence of a panel of OL stage-specific markers (A2B5, O4, O1, and MBP), following 0, 2, 6, and 10 days of maturation.

[1] = system: calcium permeable AMPA/kainate receptors; test: AMPA induced cobalt uptake in coronal brain slices; format: cell-based; conditions: P7 rat slices, 100 μM AMPA, 100 μM MK-801, 20 minute
Text: P6/7 Long Evans rat pups were sacrificed by decapitation and the brains were removed quickly and placed in ice cold rat ACSF. 300 μm coronal slices were cut on a live-slice dedicated vibratome while continually maintained in oxygen bubbled, cold ACSF. Slices were transferred to an oxygen chamber, where they were maintained at room temperature.
300 μm thick vibratome cut coronal slices were collected from the anterior commissure to the anterior aspect of the thalamus and placed in oxygen-rich ice cold rat ACSF. Stabilized slices were transferred to a room temperature oxygen chamber and maintained in ACSF. Stable slices were transferred to modified ACSF containing low calcium and 5 mM CoCL2 and stimulated with 100 μM AMPA in the presence of 100 μM MK-801 and with or without topiramate in varying concentrations. Slices were incubated at room temperature for 20 minutes then rinsed in ACSF, followed by 3 rinses in ASCF containing 2 mM EDTA to chelate and remove any unbound cobalt. Cobalt was then precipitated with ammonium […]. Sections were fixed in 4% paraformaldehyde for 10 minutes, rinsed and stored in PBS. Silver enhancement of precipitate was carried out for improved visualization. Slices were transferred to enhancement solution (10% sucrose, 15.5 mM hydroquinone, 42 mM citric acid) and warmed to 50° C. Slices were moved to similar solution containing 0.1% silver nitrate, then incubated at 50° C. for 45 minutes, with solution changes every 15 minutes. Sections were rinsed in PBS then cryoprotected in 30% sucrose solution and 40 μm sections, cut using a freezing microtome, were mounted on slides and analyzed.
Cortical slices were assessed for the presence of AMPA induced cobalt uptake in coronal slices from P7 rats. […] Immature OLs in pericallosal white matter at P7 show consistent cobalt uptake following 20 minute incubation with 100 μM AMPA, 100 μM MK-801 in low Ca^2+, cobalt containing rat ACSF (FIG. 6B). Cobalt-containing white matter cells were identified as OL precursors by immunolabeling with O4 surface antigen (FIG. 6C and FIG. 6D). […]

[2] = 100 μM NBQX or 50 μM topiramate

Row | Structure (SMILES) | progression along the OL lineage (morphology, A2B5, O4, O1, MBP) (OL precursor cells) | cobalt uptake in immature OLs of pericallosal white matter [1, 2] | cobalt uptake in immature OLs of pericallosal white matter ([1]; 10 μM topiramate)
1 | NS(=O)(=O)c1cccc2c1c([N+](=O)[O-])cc1nc(O)c(O)nc12 [NBQX, 2,3-Dioxo-6-nitro-1,2,3,4-tetrahydrobenzo[f]quinoxaline-7-sulphonamide] | indistinguishable from the progression of the control cultures | effectively blocked | –
2 | CC1(C)O[C@@H]2[C@@H](CO[C@@]3(COS(N)(=O)=O)OC(C)(C)O[C@@H]23)O1 [topiramate] | indistinguishable from the progression of the control cultures | effectively blocked | partial effect
